≈ marks a conversion by molar mass, not a printed value. Some results are limits rather than exact numbers.

Common to all, as to format: functional
For one assay, the system named is Aspergillus fumigatus. In words: Antifungal activity against Aspergillus fumigatus MTCC 3008 after 48 hr by broth microdilution method. Conditions: MTCC 3008, 48 h. A general note: Broth dilution looks for growth in wells or tubes with falling amounts of substance.
The test system of the next assay is Vibrio cholerae. Kind of assay: Antibacterial activity against Vibrio cholerae MTCC 3906 after 24 hr by broth microdilution method. The note with it: MTCC 3906, 24 h.
The subject of a further assay is Candida albicans. In words: Antifungal activity against Candida albicans MTCC 227 after 48 hr by broth microdilution method. Conditions: MTCC 227, 48 h.
For another assay, the system named is Bacillus subtilis. In words: Antibacterial activity against Bacillus subtilis MTCC 441 after 24 hr by broth microdilution method. The note with it: MTCC 441, 24 h.
For a further assay, the system named is Clostridium tetani. In words: Antibacterial activity against Clostridium tetani MTCC 449 after 24 hr by broth microdilution method. Conditions: MTCC 449, 24 h.
The next assay has as its system Escherichia coli. Kind of assay: Antibacterial activity against Escherichia coli MTCC 443 after 24 hr by broth microdilution method. The note with it: MTCC 443, 24 h.
The subject of another assay is Salmonella typhi. Kind of assay: Antibacterial activity against Salmonella enterica subsp. enterica serovar Typhi MTCC 98 after 24 hr by broth microdilution method. Conditions: MTCC 98, 24 h.
The subject of the next assay is Streptococcus pneumoniae. In words: Antibacterial activity against Streptococcus pneumoniae MTCC 1936 after 24 hr by broth microdilution method. The note with it: MTCC 1936, 24 h.

As usually defined, the MIC is the lowest concentration that inhibits growth of the organism. Lower therefore signals greater potency. As for `Cc1ccc(Sc2nc(N)c(C#N)c(-c3cc4cc(Cl)ccc4nc3Cl)c2C#N)cc1`, the MIC was determined as 500 mg/L (≈ 1080 µM) against Aspergillus fumigatus; 200 mg/L (≈ 433 µM) with Vibrio cholerae; 250 mg/L (≈ 541 µM) in the assay on Candida albicans; 200 mg/L (≈ 433 µM) against Bacillus subtilis; 200 mg/L (≈ 433 µM) against Clostridium tetani; 200 mg/L (≈ 433 µM) in the assay on Escherichia coli. Moreover, the MIC was determined as 200 mg/L (≈ 433 µM) against Salmonella typhi and 250 mg/L (≈ 541 µM) in the assay with Streptococcus pneumoniae.

In the case of `CC1(C)S[C@@H]2[C@H](NC(=O)[C@H](N)c3ccccc3)C(=O)N2[C@H]1C(=O)O` [AMPICILLIN], the MIC against Vibrio cholerae is 100 mg/L (≈ 286 µM); with Bacillus subtilis it was 250 mg/L (≈ 715 µM); in the assay on Clostridium tetani, 250 mg/L (≈ 715 µM); in the assay on Escherichia coli, 100 mg/L (≈ 286 µM); with Salmonella typhi it was 100 mg/L (≈ 286 µM); in the assay with Streptococcus pneumoniae it was 100 mg/L (≈ 286 µM).

With `Cc1ccc2cc(-c3c(C#N)c(N)nc(Sc4ccc(Cl)cc4)c3C#N)c(Cl)nc2c1`, the MIC is greater than 1000 mg/L against Aspergillus fumigatus; 500 mg/L (≈ 1080 µM) in the assay with Vibrio cholerae; greater than 1000 mg/L against Candida albicans; 250 mg/L (≈ 541 µM) in the assay on Bacillus subtilis; 250 mg/L (≈ 541 µM) with Clostridium tetani; 500 mg/L (≈ 1080 µM) in the assay on Escherichia coli. The MIC with Salmonella typhi came out at 500 mg/L (≈ 1080 µM); with Streptococcus pneumoniae, 250 mg/L (≈ 541 µM).

For the molecule `N#Cc1c(N)nc(Sc2ccccc2)c(C#N)c1-c1cc2ccccc2nc1Cl`, the MIC in the assay with Aspergillus fumigatus was 500 mg/L (≈ 1210 µM); against Vibrio cholerae, 200 mg/L (≈ 483 µM); with Candida albicans it was 500 mg/L (≈ 1210 µM); with Bacillus subtilis, 250 mg/L (≈ 604 µM); with Clostridium tetani, 500 mg/L (≈ 1210 µM); against Escherichia coli it was 200 mg/L (≈ 483 µM). Further, the MIC in the assay on Salmonella typhi came out at 200 mg/L (≈ 483 µM); against Streptococcus pneumoniae, 250 mg/L (≈ 604 µM).

As for `Cc1ccc(Sc2nc(N)c(C#N)c(-c3cc4ccc(C)cc4nc3Cl)c2C#N)cc1`, the MIC with Aspergillus fumigatus was greater than 1000 mg/L; in the assay on Vibrio cholerae it was 200 mg/L (≈ 453 µM); with Candida albicans, greater than 1000 mg/L; in the assay with Bacillus subtilis, 200 mg/L (≈ 453 µM); in the assay with Clostridium tetani, 200 mg/L (≈ 453 µM); against Escherichia coli it was 200 mg/L (≈ 453 µM). Further, the MIC stood at 250 mg/L (≈ 566 µM) in the assay on Salmonella typhi and 200 mg/L (≈ 453 µM) against Streptococcus pneumoniae.

As to `Cc1ccc(Sc2nc(N)c(C#N)c(-c3cc4ccccc4nc3Cl)c2C#N)cc1`, the MIC against Aspergillus fumigatus is greater than 1000 mg/L; against Vibrio cholerae, 62.5 mg/L (≈ 146 µM); in the assay with Candida albicans, greater than 1000 mg/L; against Bacillus subtilis, 250 mg/L (≈ 584 µM); in the assay on Clostridium tetani, 250 mg/L (≈ 584 µM); with Escherichia coli it was 100 mg/L (≈ 234 µM). The MIC in the assay with Salmonella typhi is 100 mg/L (≈ 234 µM); against Streptococcus pneumoniae it was 200 mg/L (≈ 467 µM).

`N#Cc1c(N)nc(Sc2ccccc2)c(C#N)c1-c1cc2cc(Cl)ccc2nc1Cl`: the MIC against Aspergillus fumigatus amounted to 250 mg/L (≈ 558 µM); against Vibrio cholerae, 200 mg/L (≈ 446 µM); against Candida albicans it was 250 mg/L (≈ 558 µM); against Bacillus subtilis it was 100 mg/L (≈ 223 µM); in the assay with Clostridium tetani, 250 mg/L (≈ 558 µM); with Escherichia coli, 200 mg/L (≈ 446 µM). Also, the MIC in the assay on Salmonella typhi was 250 mg/L (≈ 558 µM); against Streptococcus pneumoniae, 200 mg/L (≈ 446 µM).

For the molecule `Cc1ccc(Sc2nc(N)c(C#N)c(-c3cc4cc(C)ccc4nc3Cl)c2C#N)cc1`, the MIC against Aspergillus fumigatus came out at 500 mg/L (≈ 1130 µM); in the assay on Vibrio cholerae it was 500 mg/L (≈ 1130 µM); against Candida albicans it was 250 mg/L (≈ 566 µM); against Bacillus subtilis, 100 mg/L (≈ 226 µM); against Clostridium tetani, 500 mg/L (≈ 1130 µM); in the assay on Escherichia coli, 250 mg/L (≈ 566 µM). Also, the MIC turned out to be 200 mg/L (≈ 453 µM) in the assay with Salmonella typhi and 100 mg/L (≈ 226 µM) against Streptococcus pneumoniae.

As to `COc1ccc2nc(Cl)c(-c3c(C#N)c(N)nc(Sc4ccc(C)cc4)c3C#N)cc2c1`, the MIC with Aspergillus fumigatus was greater than 1000 mg/L; against Vibrio cholerae it was 500 mg/L (≈ 1090 µM); in the assay on Candida albicans it was greater than 1000 mg/L; against Bacillus subtilis, 500 mg/L (≈ 1090 µM); against Clostridium tetani, 500 mg/L (≈ 1090 µM); in the assay with Escherichia coli, 500 mg/L (≈ 1090 µM). The MIC in the assay on Salmonella typhi and in the assay on Streptococcus pneumoniae was 500 mg/L (≈ 1090 µM) each time.

In the case of `Cc1ccc2cc(-c3c(C#N)c(N)nc(Sc4ccccc4)c3C#N)c(Cl)nc2c1`, the MIC in the assay with Aspergillus fumigatus was found to be 1000 mg/L (≈ 2340 µM); against Vibrio cholerae it was 250 mg/L (≈ 584 µM); against Candida albicans, 1000 mg/L (≈ 2340 µM); against Bacillus subtilis, 100 mg/L (≈ 234 µM); in the assay with Clostridium tetani it was 200 mg/L (≈ 467 µM); in the assay on Escherichia coli, 100 mg/L (≈ 234 µM). In addition, the minimum inhibitory concentration (MIC) against Salmonella typhi amounted to 200 mg/L (≈ 467 µM); in the assay on Streptococcus pneumoniae it was 100 mg/L (≈ 234 µM).

For `COC1=CC(=O)C[C@@H](C)[C@]12Oc1c(Cl)c(OC)cc(OC)c1C2=O` [GRISEOFULVIN], the minimal inhibitory concentration (MIC) with Aspergillus fumigatus was found to be 500 mg/L (≈ 1420 µM); against Candida albicans, 100 mg/L (≈ 283 µM).

For `COc1ccc2nc(Cl)c(-c3c(C#N)c(N)nc(Sc4ccc(Cl)cc4)c3C#N)cc2c1`, the MIC against Aspergillus fumigatus is greater than 1000 mg/L; in the assay on Vibrio cholerae, 200 mg/L (≈ 418 µM); with Candida albicans, 1000 mg/L (≈ 2090 µM); in the assay with Bacillus subtilis it was 250 mg/L (≈ 523 µM); with Clostridium tetani, 200 mg/L (≈ 418 µM); against Escherichia coli, 200 mg/L (≈ 418 µM). Further, the minimum inhibitory concentration (MIC) is 200 mg/L (≈ 418 µM) with Salmonella typhi and 250 mg/L (≈ 523 µM) in the assay with Streptococcus pneumoniae.

As to `N#Cc1c(N)nc(Sc2ccc(Cl)cc2)c(C#N)c1-c1cc2cc(Cl)ccc2nc1Cl`, the MIC is 500 mg/L (≈ 1040 µM) against Aspergillus fumigatus; 500 mg/L (≈ 1040 µM) in the assay on Vibrio cholerae; 200 mg/L (≈ 414 µM) in the assay on Candida albicans; 250 mg/L (≈ 518 µM) against Bacillus subtilis; 500 mg/L (≈ 1040 µM) with Clostridium tetani; 250 mg/L (≈ 518 µM) in the assay on Escherichia coli. Also, the MIC against Salmonella typhi came to 250 mg/L (≈ 518 µM); against Streptococcus pneumoniae, 500 mg/L (≈ 1040 µM).

`CCn1cc(C(=O)O)c(=O)c2cc(F)c(N3CCNCC3)cc21` [NORFLOXACIN]: the MIC in the assay on Vibrio cholerae came to 10 mg/L (≈ 31.3 µM); against Bacillus subtilis, 100 mg/L (≈ 313 µM); in the assay with Clostridium tetani, 50 mg/L (≈ 157 µM); in the assay with Escherichia coli it was 10 mg/L (≈ 31.3 µM); in the assay with Salmonella typhi it was 10 mg/L (≈ 31.3 µM); in the assay on Streptococcus pneumoniae, 10 mg/L (≈ 31.3 µM).

Consider `Cc1ccc2nc(Cl)c(-c3c(C#N)c(N)nc(Sc4ccc(Cl)cc4)c3C#N)cc2c1`, for which the minimal inhibitory concentration (MIC) came to 500 mg/L (≈ 1080 µM) against Aspergillus fumigatus; 200 mg/L (≈ 433 µM) in the assay on Vibrio cholerae; 500 mg/L (≈ 1080 µM) against Candida albicans; 200 mg/L (≈ 433 µM) against Bacillus subtilis; 250 mg/L (≈ 541 µM) in the assay on Clostridium tetani; 62.5 mg/L (≈ 135 µM) with Escherichia coli. For the same molecule, the results for the MIC in the assay with Salmonella typhi and with Streptococcus pneumoniae were 100 mg/L (≈ 216 µM) and 200 mg/L (≈ 433 µM), respectively.

Turning to `Cc1ccc2nc(Cl)c(-c3c(C#N)c(N)nc(Sc4ccccc4)c3C#N)cc2c1`, the MIC in the assay on Aspergillus fumigatus was greater than 1000 mg/L; with Vibrio cholerae it was 250 mg/L (≈ 584 µM); against Candida albicans it was greater than 1000 mg/L; against Bacillus subtilis, 500 mg/L (≈ 1170 µM); in the assay on Clostridium tetani it was 500 mg/L (≈ 1170 µM); with Escherichia coli, 200 mg/L (≈ 467 µM). Further, the values for the MIC against Salmonella typhi and in the assay with Streptococcus pneumoniae were 200 mg/L (≈ 467 µM) and 250 mg/L (≈ 584 µM), respectively.

As to `N#Cc1c(N)nc(Sc2ccc(Cl)cc2)c(C#N)c1-c1cc2ccccc2nc1Cl`, the MIC against Aspergillus fumigatus stood at 1000 mg/L (≈ 2230 µM); against Vibrio cholerae, 250 mg/L (≈ 558 µM); in the assay with Candida albicans it was 1000 mg/L (≈ 2230 µM); against Bacillus subtilis, 250 mg/L (≈ 558 µM); against Clostridium tetani it was 250 mg/L (≈ 558 µM); in the assay with Escherichia coli it was 100 mg/L (≈ 223 µM). Besides, the MIC was 150 mg/L (≈ 335 µM) with Salmonella typhi and 250 mg/L (≈ 558 µM) in the assay with Streptococcus pneumoniae.

For `COc1ccc2nc(Cl)c(-c3c(C#N)c(N)nc(Sc4ccccc4)c3C#N)cc2c1`, the MIC in the assay with Aspergillus fumigatus was 1000 mg/L (≈ 2250 µM); in the assay with Vibrio cholerae, 500 mg/L (≈ 1130 µM); with Candida albicans it was 1000 mg/L (≈ 2250 µM); in the assay on Bacillus subtilis it was 250 mg/L (≈ 563 µM); with Clostridium tetani it was 200 mg/L (≈ 451 µM); with Escherichia coli it was 500 mg/L (≈ 1130 µM). Besides, the minimum inhibitory concentration (MIC) was 500 mg/L (≈ 1130 µM) in the assay on Salmonella typhi and 250 mg/L (≈ 563 µM) against Streptococcus pneumoniae.

For the origin of these results see ChEMBL document CHEMBL3046743, “Synthesis and in vitro antimicrobial evaluation of penta-substituted pyridine derivatives bearing the quinoline nucleus” (2012).
